Data taken from patent US10844077B2, “Thiazolyl-containing compounds for treating proliferative diseases” (Dana-Farber Cancer Institute, Inc., priority 2014, dated 2020).
Several values for one entry are separate records, joined by “and”; a condition that tells them apart may be missing. Identical values can stand only once. Like-named read-outs stand apart in the source and are kept apart here.

Tests used:
Type in all cases: cell-based
kinases in BCWM.1 cells [1] = biological target: kinases in BCWM.1 cells (Homo sapiens, UniProt O00329); details: PIK3CD; ATP; 1 μM, 90 min; GF
Method: (§1) The cells were harvested and lysed. […] Bound kinases were identified and quantitated by ACTIVX as described in Patricelli et al., Biochemistry, 2007, 46(2): 350-358. The compounds were tested in duplicates against duplicate or quadruplicate control samples.

kinases in BCWM.1 cells [2] = biological target: kinases in BCWM.1 cells (Homo sapiens, UniProt O75385); details: ULK1; Lys2; 1 μM, 90 min; GF
Method: as §1

kinases in BCWM.1 cells [3] = biological target: kinases in BCWM.1 cells (Homo sapiens, UniProt O95819)
Method: as §1

kinases in BCWM.1 cells [4] = biological target: kinases in BCWM.1 cells (Homo sapiens, UniProt P04049); details: RAF1; Lys2; 1 μM, 90 min; GF
Method: as §1

kinases in BCWM.1 cells [5] = biological target: kinases in BCWM.1 cells (Homo sapiens, UniProt P15735); details: PHKg2; Lys1; 1 μM, 90 min; GF
Method: as §1

kinases in BCWM.1 cells [6] = biological target: kinases in BCWM.1 cells (Homo sapiens, UniProt P23443); details: p70S6K; Lys2; 1 μM, 90 min; GF
Method: as §1

kinases in BCWM.1 cells [7] = biological target: kinases in BCWM.1 cells (Homo sapiens, UniProt P29597); details: TYK2 domain2; Activation Loop; 1 μM, 90 min; GF
Method: as §1

kinases in BCWM.1 cells [8] = biological target: kinases in BCWM.1 cells (Homo sapiens, UniProt P43405); details: SYK; Activation Loop; 1 μM, 90 min; GF
Method: as §1

kinases in BCWM.1 cells [9] = biological target: kinases in BCWM.1 cells (Homo sapiens, UniProt P48736); details: PIK3CG; ATP; 1 μM, 90 min; GF
Method: as §1

kinases in BCWM.1 cells [10] = biological target: kinases in BCWM.1 cells (Homo sapiens, UniProt P51957); details: NEK4; Lys2; 1 μM, 90 min; GF
Method: as §1

kinases in BCWM.1 cells [11] = biological target: kinases in BCWM.1 cells (Homo sapiens, UniProt P53350); details: PLK1; Lys1; 1 μM, 90 min; GF
Method: as §1

kinases in BCWM.1 cells [12] = biological target: kinases in BCWM.1 cells (Homo sapiens, UniProt Q13464); details: ROCK1; Protein Kinase Domain; 1 μM, 90 min; GF
Method: as §1

kinases in BCWM.1 cells [13] = biological target: kinases in BCWM.1 cells (Homo sapiens, UniProt Q13523); details: PRP4; Lys2; 1 μM, 90 min; GF
Method: as §1

kinases in BCWM.1 cells [14] = biological target: kinases in BCWM.1 cells (Homo sapiens, UniProt Q14289); details: PYK2; Activation Loop; 1 μM, 90 min; GF
Method: as §1

kinases in BCWM.1 cells [15] = biological target: kinases in BCWM.1 cells (Homo sapiens, UniProt Q15349); details: RSK3 domain1; Lys2; 1 μM, 90 min; GF
Method: as §1

kinases in BCWM.1 cells [16] = biological target: kinases in BCWM.1 cells (Homo sapiens, UniProt Q6PHR2); details: ULK3; Lys2; 1 μM, 90 min; GF
Method: as §1

kinases in BCWM.1 cells [17] = biological target: kinases in BCWM.1 cells (Homo sapiens, UniProt Q7RTN6); details: STLK5; Activation Loop; 1 μM, 90 min; GF
Method: as §1

kinases in BCWM.1 cells [18] = biological target: kinases in BCWM.1 cells (Homo sapiens, UniProt Q86UE8); details: TLK2; Lys2; 1 μM, 90 min; GF
Method: as §1

kinases in BCWM.1 cells [19] = biological target: kinases in BCWM.1 cells (Homo sapiens, UniProt Q8TD19); details: NEK9; Lys2; 1 μM, 90 min; GF
Method: as §1

kinases in BCWM.1 cells [20] = biological target: kinases in BCWM.1 cells (Homo sapiens, UniProt Q96PY6); details: NEK1; Lys2; 1 μM, 90 min; GF
Method: as §1

kinases in BCWM.1 cells [21] = biological target: kinases in BCWM.1 cells (Homo sapiens, UniProt Q96S44); details: PRPK; ATP Loop; 1 μM, 90 min; GF
Method: as §1

kinases in BCWM.1 cells [22] = biological target: kinases in BCWM.1 cells (Homo sapiens, UniProt Q9BZL6); details: PKD2; Lys1; 1 μM, 90 min; GF
Method: as §1

kinases in BCWM.1 cells [23] = biological target: kinases in BCWM.1 cells (Homo sapiens, UniProt Q9NZJ5); details: PEK; Lys2; 1 μM, 90 min; GF
Method: as §1

kinases in BCWM.1 cells [24] = biological target: kinases in BCWM.1 cells (Homo sapiens, UniProt Q9UBE8); details: NLK; Lys2; 1 μM, 90 min; GF
Method: as §1

kinases in BCWM.1 cells [25] = biological target: kinases in BCWM.1 cells (Homo sapiens, UniProt Q9Y572); details: RIPK3; Lys2; 1 μM, 90 min; GF
Method: as §1

kinases in BCWM.1 cells [26] = details: 1 μM, GF
Method: as §1

Sequence of kinases in BCWM.1 cells (Homo sapiens, UniProt Q8TD19) (Q8TD19 2-979 limits assumed): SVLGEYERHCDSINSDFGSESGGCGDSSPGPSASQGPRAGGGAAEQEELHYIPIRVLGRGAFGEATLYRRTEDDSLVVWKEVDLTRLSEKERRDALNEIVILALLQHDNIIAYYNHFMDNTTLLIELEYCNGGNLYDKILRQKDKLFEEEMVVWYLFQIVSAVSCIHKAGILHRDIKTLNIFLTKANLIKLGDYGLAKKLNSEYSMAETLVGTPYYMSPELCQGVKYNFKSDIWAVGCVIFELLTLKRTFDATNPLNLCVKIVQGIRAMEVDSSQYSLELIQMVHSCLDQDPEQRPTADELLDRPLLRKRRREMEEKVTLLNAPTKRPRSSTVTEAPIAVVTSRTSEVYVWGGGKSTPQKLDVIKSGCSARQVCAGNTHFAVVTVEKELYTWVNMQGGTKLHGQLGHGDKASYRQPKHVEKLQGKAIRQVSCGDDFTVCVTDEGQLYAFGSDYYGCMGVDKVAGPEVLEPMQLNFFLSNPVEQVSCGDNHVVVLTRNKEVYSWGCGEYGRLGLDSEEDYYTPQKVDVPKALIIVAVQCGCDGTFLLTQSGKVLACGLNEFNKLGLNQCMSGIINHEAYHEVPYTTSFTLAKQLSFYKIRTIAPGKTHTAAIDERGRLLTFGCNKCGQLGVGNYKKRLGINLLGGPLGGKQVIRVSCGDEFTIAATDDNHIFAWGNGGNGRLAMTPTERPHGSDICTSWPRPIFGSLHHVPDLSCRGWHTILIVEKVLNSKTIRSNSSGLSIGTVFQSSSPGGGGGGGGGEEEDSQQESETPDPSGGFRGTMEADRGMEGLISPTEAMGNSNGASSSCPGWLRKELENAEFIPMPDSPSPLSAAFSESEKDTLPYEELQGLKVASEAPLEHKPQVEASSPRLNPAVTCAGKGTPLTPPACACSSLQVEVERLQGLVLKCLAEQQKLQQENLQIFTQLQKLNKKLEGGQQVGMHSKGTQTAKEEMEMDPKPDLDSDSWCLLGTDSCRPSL
Sequence of kinases in BCWM.1 cells (Homo sapiens, UniProt Q13464) (Q13464 2-1354 limits assumed): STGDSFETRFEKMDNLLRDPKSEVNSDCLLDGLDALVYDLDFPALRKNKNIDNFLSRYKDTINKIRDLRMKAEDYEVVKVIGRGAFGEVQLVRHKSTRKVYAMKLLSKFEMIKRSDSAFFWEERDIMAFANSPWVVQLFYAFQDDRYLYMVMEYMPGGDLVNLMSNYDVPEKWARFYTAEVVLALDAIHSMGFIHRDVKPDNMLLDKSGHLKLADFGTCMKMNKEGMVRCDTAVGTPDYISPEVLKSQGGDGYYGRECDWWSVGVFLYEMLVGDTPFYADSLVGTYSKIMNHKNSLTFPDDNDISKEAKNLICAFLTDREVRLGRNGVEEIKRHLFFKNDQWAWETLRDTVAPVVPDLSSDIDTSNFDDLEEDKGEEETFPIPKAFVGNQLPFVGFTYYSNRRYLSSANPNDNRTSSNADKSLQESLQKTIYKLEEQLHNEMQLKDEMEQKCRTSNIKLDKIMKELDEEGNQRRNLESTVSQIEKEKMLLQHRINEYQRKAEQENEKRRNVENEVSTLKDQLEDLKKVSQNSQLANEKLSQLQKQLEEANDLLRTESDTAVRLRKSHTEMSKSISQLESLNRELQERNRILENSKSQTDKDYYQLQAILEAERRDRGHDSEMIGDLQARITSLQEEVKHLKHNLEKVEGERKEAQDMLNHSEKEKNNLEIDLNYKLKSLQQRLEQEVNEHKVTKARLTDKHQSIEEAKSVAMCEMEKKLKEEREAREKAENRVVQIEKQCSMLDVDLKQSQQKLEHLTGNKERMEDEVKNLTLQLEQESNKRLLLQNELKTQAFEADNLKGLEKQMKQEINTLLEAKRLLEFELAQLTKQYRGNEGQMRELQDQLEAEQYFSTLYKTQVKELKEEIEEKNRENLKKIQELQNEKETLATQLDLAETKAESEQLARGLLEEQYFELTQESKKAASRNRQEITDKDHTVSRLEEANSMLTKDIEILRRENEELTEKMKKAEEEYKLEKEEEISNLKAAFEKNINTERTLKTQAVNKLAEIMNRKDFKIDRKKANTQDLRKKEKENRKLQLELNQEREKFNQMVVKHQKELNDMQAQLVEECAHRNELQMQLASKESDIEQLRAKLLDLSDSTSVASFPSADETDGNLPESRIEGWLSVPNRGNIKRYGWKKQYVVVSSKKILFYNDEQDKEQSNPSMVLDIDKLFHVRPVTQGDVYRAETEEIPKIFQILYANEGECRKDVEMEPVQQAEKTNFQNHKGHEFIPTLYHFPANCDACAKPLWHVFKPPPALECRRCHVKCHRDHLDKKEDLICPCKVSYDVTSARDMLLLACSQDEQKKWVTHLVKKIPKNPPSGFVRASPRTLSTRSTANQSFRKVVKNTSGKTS
Sequence of kinases in BCWM.1 cells (Homo sapiens, UniProt O95819) (O95819 2-1239 limits assumed): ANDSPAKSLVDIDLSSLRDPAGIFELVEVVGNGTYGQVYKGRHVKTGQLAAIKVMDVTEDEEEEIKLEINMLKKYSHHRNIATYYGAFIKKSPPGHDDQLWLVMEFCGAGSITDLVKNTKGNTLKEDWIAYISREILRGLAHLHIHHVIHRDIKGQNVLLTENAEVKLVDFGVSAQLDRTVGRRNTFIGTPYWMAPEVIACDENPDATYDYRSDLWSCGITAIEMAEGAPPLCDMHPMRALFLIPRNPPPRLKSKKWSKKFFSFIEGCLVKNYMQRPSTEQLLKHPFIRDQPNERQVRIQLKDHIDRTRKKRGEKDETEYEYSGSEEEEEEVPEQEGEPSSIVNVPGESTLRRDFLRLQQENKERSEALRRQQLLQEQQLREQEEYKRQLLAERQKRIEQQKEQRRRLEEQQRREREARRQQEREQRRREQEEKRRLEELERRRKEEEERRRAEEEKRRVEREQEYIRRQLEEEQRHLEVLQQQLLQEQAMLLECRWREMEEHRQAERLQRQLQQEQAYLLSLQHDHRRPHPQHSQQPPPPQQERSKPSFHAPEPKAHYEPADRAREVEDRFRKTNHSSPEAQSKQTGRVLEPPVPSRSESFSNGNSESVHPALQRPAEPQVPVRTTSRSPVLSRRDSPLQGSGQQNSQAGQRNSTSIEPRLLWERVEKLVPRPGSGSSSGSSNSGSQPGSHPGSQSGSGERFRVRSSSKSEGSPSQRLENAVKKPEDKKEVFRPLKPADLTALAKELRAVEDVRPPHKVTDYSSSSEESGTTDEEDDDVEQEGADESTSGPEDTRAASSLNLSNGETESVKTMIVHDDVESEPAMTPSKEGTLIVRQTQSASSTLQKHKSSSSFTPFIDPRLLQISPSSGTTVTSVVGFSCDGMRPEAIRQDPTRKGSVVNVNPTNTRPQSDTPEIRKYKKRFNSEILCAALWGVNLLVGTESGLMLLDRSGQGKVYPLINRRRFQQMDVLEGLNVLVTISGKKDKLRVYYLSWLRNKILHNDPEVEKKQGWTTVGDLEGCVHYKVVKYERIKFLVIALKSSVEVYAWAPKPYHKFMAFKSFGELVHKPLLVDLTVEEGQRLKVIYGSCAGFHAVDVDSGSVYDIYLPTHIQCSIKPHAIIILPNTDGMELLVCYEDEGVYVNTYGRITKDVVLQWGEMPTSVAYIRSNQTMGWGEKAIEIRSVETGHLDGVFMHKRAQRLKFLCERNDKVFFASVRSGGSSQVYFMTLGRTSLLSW
Sequence of kinases in BCWM.1 cells (Homo sapiens, UniProt Q13523) (Q13523 2-1007 limits assumed): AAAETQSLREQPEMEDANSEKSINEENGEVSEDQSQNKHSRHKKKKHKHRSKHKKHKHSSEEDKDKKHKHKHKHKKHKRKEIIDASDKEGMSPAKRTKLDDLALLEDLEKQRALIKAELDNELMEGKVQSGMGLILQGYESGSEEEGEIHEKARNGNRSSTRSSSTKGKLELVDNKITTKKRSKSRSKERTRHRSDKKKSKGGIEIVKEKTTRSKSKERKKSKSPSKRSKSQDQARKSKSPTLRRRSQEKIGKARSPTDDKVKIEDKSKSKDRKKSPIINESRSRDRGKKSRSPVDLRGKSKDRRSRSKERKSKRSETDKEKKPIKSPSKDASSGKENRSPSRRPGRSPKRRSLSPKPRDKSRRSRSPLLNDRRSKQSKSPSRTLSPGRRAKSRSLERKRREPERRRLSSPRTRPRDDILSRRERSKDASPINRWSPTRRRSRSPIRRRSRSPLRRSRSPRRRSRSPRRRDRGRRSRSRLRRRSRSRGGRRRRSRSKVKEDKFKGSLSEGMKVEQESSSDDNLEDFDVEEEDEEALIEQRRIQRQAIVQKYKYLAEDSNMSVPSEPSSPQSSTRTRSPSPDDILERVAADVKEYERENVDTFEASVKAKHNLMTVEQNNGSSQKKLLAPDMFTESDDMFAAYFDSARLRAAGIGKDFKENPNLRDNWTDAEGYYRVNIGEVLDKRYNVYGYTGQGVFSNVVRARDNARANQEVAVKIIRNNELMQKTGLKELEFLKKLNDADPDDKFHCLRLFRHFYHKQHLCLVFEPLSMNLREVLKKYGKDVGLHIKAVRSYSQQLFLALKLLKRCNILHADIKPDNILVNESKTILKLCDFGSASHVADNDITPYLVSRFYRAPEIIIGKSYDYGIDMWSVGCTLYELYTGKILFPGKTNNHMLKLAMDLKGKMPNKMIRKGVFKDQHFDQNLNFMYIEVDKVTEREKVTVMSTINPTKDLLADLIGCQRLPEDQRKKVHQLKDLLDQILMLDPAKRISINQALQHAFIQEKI

Structure (SMILES): CCC(=O)N1CC[C@H](Nc2nccc(Nc3ncc(C(=O)Nc4c(C)cccc4C)s3)n2)C1 [Example I-9]
- % change of MS signal compared to control sample (kinases in BCWM.1 cells [1]): −9.7%
- % change of MS signal compared to control sample (kinases in BCWM.1 cells [2]): −1.7%
- % change of MS signal compared to control sample (kinases in BCWM.1 cells [3]): 15.3%
- % change of MS signal compared to control sample (kinases in BCWM.1 cells [4]): −9.2%
- % change of MS signal compared to control sample (kinases in BCWM.1 cells [5]): 5.3%
- % change of MS signal compared to control sample (kinases in BCWM.1 cells [6]): −8.6%
- % change of MS signal compared to control sample (kinases in BCWM.1 cells [7]): −16.8%
- % change of MS signal compared to control sample (kinases in BCWM.1 cells [8]): −6.1%
- % change of MS signal compared to control sample (kinases in BCWM.1 cells [9]): −9.6%
- % change of MS signal compared to control sample (kinases in BCWM.1 cells [10]): −1.7%
- % change of MS signal compared to control sample (kinases in BCWM.1 cells [11]): 9.6%
- % change of MS signal compared to control sample (kinases in BCWM.1 cells [12]): −2.1%
- % change of MS signal compared to control sample (kinases in BCWM.1 cells [13]): −15.7%
- % change of MS signal compared to control sample (kinases in BCWM.1 cells [14]): −0.9%
- % change of MS signal compared to control sample (kinases in BCWM.1 cells [15]): −4.1%
- % change of MS signal compared to control sample (kinases in BCWM.1 cells [16]): −9.6%
- % change of MS signal compared to control sample (kinases in BCWM.1 cells [17]): −9.4%
- % change of MS signal compared to control sample (kinases in BCWM.1 cells [18]): −1.9%
- % change of MS signal compared to control sample (kinases in BCWM.1 cells [19]): −12.6%
- % change of MS signal compared to control sample (kinases in BCWM.1 cells [20]): 4.6%
- % change of MS signal compared to control sample (kinases in BCWM.1 cells [21]): −1.2%
- % change of MS signal compared to control sample (kinases in BCWM.1 cells [22]): −4.2%
- % change of MS signal compared to control sample (kinases in BCWM.1 cells [23]): 15.4%
- % change of MS signal compared to control sample (kinases in BCWM.1 cells [24]): 51.8%
- % change of MS signal compared to control sample (kinases in BCWM.1 cells [25]): −27%
- % change of MS signal compared to control sample (kinases in BCWM.1 cells [26]; ABL, ARG, Activation Loop): 46.1% and 75.4%
- % change of MS signal compared to control sample (kinases in BCWM.1 cells [26]; ABL, ARG, Lys1): 40.6% and 71.8%
- % change of MS signal compared to control sample (kinases in BCWM.1 cells [26]; AurA, AurB, AurC, ATP Loop): 5.5% and 2.8%
- % change of MS signal compared to control sample (kinases in BCWM.1 cells [26]; CK1g1, CK1g2, CK1g3, ATP Loop): −8.2% and −4.7%
- % change of MS signal compared to control sample (kinases in BCWM.1 cells [26]; FYN, SRC, YES, Activation Loop): 72.5% and 80.4%
- % change of MS signal compared to control sample (kinases in BCWM.1 cells [26]; JNK1, JNK2, JNK3, Lys2): −7% and 0.5%
- % change of MS signal compared to control sample (kinases in BCWM.1 cells [26]; KSR1, KSR2, Activation Loop): −14.6% and −16.2%
- % change of MS signal compared to control sample (kinases in BCWM.1 cells [26]; MAP2K1, MAP2K2, Lys1): −9.2% and −1.1%
- % change of MS signal compared to control sample (kinases in BCWM.1 cells [26]; MAP2K1, MAP2K2, Lys2): −6.4% and −4.5%
- % change of MS signal compared to control sample (kinases in BCWM.1 cells [26]; MAP3K2, MAP3K3, Lys2): 0.7% and 6.8%
- % change of MS signal compared to control sample (kinases in BCWM.1 cells [26]; MARK3, MARK4, Lys1): −10.4% and −7.1%
- % change of MS signal compared to control sample (kinases in BCWM.1 cells [26]; MER, TYRO3, Activation Loop): −14.7%
- % change of MS signal compared to control sample (kinases in BCWM.1 cells [26]; MST4, YSK1, Lys2, 90 min): 15.2%
- % change of MS signal compared to control sample (kinases in BCWM.1 cells [26]; NEK6, NEK7, Lys2, 90 min): −0.8%
- % change of MS signal compared to control sample (kinases in BCWM.1 cells [26]; PCTAIRE2, PCTAIRE3, Lys1, 90 min): −0.8%
- % change of MS signal compared to control sample (kinases in BCWM.1 cells [26]; PI4KA, PI4KAP2, ATP, 90 min): 3.6%
- % change of MS signal compared to control sample (kinases in BCWM.1 cells [26]; PKACa, PKCb, Lys2, 90 min): 25.3%
- % change of MS signal compared to control sample (kinases in BCWM.1 cells [26]; ROCK1, ROCK2, Lys2, 90 min): 1.7%
- % change of MS signal compared to control sample (kinases in BCWM.1 cells [26]; RSK1 domain1, RSK2 domain1, RSK3 domain1, Lys2, 90 min): −6.1%
- % change of MS signal compared to control sample (kinases in BCWM.1 cells [26]; SRPK1, SRPK2, Lys1, 90 min): 2.5%
- % change of MS signal compared to control sample (kinases in BCWM.1 cells [26]; TAO1, TAO3, Lys2, 90 min): 9.3%
- % change of MS signal compared to control sample (kinases in BCWM.1 cells [26]; Wnk1, Wnk2, Wnk3, Lys2, 90 min): 4.4%
- % change of MS signal compared to control sample (kinases in BCWM.1 cells [26]; Wnk1, Wnk2, ATP Loop, 90 min): 7.6%
- % change of MS signal compared to control sample (kinases in BCWM.1 cells [26]; ZC1/HGK, ZC2/TNIK, ZC3/MINK, Lys2, 90 min): 1.8%
- % change of MS signal compared to control sample (kinases in BCWM.1 cells [26]; p38d, p38g, Lys2, 90 min): −27.1%
